Measured values as given in ChEMBL document CHEMBL3885881, “DrugMatrix”.

Species on record: Rattus norvegicus
Assay: DrugMatrix - Regimen: Daily Repeat
Assay type: toxicity, organism-based, Sprague-Dawley
Design: regimen Daily Repeat, gender Male, age 6-8 weeks
Details: in vivo, po, route oral GAVAGE, vehicle 100 % SALINE; for ABSOLUTE BASOPHIL / ABSOLUTE EOSINOPHIL / ABSOLUTE LYMPHOCYTE / ABSOLUTE MONOCYTE / ABSOLUTE SEGMENTED NEUTROPHIL / BASOPHIL / EOSINOPHIL / ERYTHROCYTE COUNT / HEMATOCRIT / HEMOGLOBIN / LEUKOCYTE COUNT / LYMPHOCYTE / MEAN CORPUSCULAR HEMOGLOBIN / MEAN CORPUSCULAR HEMOGLOBIN CONCENTRATION / MEAN CORPUSCULAR VOLUME / MONOCYTE / NEUTROPHIL / NUCLEATED RED BLOOD CELLS / PLATELET COUNT: tissue Blood; for ALANINE AMINOTRANSFERASE / ALBUMIN / ALKALINE PHOSPHATASE / ASPARTATE AMINOTRANSFERASE / BLOOD UREA NITROGEN / CARBON DIOXIDE / CHLORIDE / CHOLESTEROL / CREATINE PHOSPHOKINASE / CREATININE / GLUCOSE / LACTATE DEHYDROGENASE / LIPASE / PHOSPHORUS / POTASSIUM / SODIUM / TOTAL BILIRUBIN / TOTAL PROTEIN / URIC ACID: tissue Plasma
[1] = 46 mg/kg, 120 h, dose level Low, time 5 day
[2] = 360 mg/kg, 72 h, dose level High, time 3 day
[3] = 360 mg/kg, 120 h, dose level High, time 5 day

COc1ccc2cc(CC(=O)O)ccc2c1
ABSOLUTE BASOPHIL [1]: 0 CELLS/uL | ABSOLUTE EOSINOPHIL [1]: 93.33 CELLS/uL | ABSOLUTE LYMPHOCYTE [1]: 9837 CELLS/uL | ABSOLUTE MONOCYTE [1]: 271.67 CELLS/uL | ABSOLUTE SEGMENTED NEUTROPHIL [1]: 1398 CELLS/uL | BASOPHIL [1]: 0% | EOSINOPHIL [1]: 0.67% | ERYTHROCYTE COUNT [1]: 5.65 x10E6/uL | HEMATOCRIT [1]: 35.2% | HEMOGLOBIN [1]: 13.83 G/DL | LEUKOCYTE COUNT [1]: 11.6 x10E3/uL | LYMPHOCYTE [1]: 86% | MEAN CORPUSCULAR HEMOGLOBIN [1]: 24.5 pg | MEAN CORPUSCULAR HEMOGLOBIN CONCENTRATION [1]: 39.33 G/DL | MEAN CORPUSCULAR VOLUME [1]: 62.23 fL | MONOCYTE [1]: 2.33% | NEUTROPHIL [1]: 11% | NUCLEATED RED BLOOD CELLS [1]: 0 /100WBC | PLATELET COUNT [1]: 1138.33 x10E3/uL | ALANINE AMINOTRANSFERASE [1]: 39.67 u/L | ALBUMIN [1]: 3.93 G/DL | ALKALINE PHOSPHATASE [1]: 339 u/L | ASPARTATE AMINOTRANSFERASE [1]: 71 u/L | BLOOD UREA NITROGEN [1]: 16.67 mg/dL | CARBON DIOXIDE [1]: 37.33 mmol/L | CHLORIDE [1]: 100 MEQ/L | CHOLESTEROL [1]: 65.67 mg/dL | CREATINE PHOSPHOKINASE [1]: 168 u/L | CREATININE [1]: 0.25 mg/dL | GLUCOSE [1]: 144.33 mg/dL | LACTATE DEHYDROGENASE [1]: 125.67 u/L | LIPASE [1]: 9.33 u/L | PHOSPHORUS [1]: 9.93 mg/dL | POTASSIUM [1]: 6.48 MEQ/L | SODIUM [1]: 142.9 MEQ/L | TOTAL BILIRUBIN [1]: 0.2 mg/dL | TOTAL PROTEIN [1]: 5.57 G/DL | URIC ACID [1]: 1.23 mg/dL | ABSOLUTE BASOPHIL [2]: 0 CELLS/uL | ABSOLUTE EOSINOPHIL [2]: 13.33 CELLS/uL | ABSOLUTE LYMPHOCYTE [2]: 7596.67 CELLS/uL | ABSOLUTE MONOCYTE [2]: 249.33 CELLS/uL | ABSOLUTE SEGMENTED NEUTROPHIL [2]: 2774 CELLS/uL | BASOPHIL [2]: 0% | EOSINOPHIL [2]: 0.33% | ERYTHROCYTE COUNT [2]: 3.71 x10E6/uL | HEMATOCRIT [2]: 23.17% | HEMOGLOBIN [2]: 9.43 G/DL | LEUKOCYTE COUNT [2]: 10.63 x10E3/uL | LYMPHOCYTE [2]: 66.67% | MEAN CORPUSCULAR HEMOGLOBIN [2]: 25.93 pg | MEAN CORPUSCULAR HEMOGLOBIN CONCENTRATION [2]: 41.23 G/DL | MEAN CORPUSCULAR VOLUME [2]: 62.9 fL | MONOCYTE [2]: 1.67% | NEUTROPHIL [2]: 31.33% | NUCLEATED RED BLOOD CELLS [2]: 1.67 /100WBC | PLATELET COUNT [2]: 943 x10E3/uL | ALANINE AMINOTRANSFERASE [2]: 45.33 u/L | ALBUMIN [2]: 2.4 G/DL | ALKALINE PHOSPHATASE [2]: 253 u/L | ASPARTATE AMINOTRANSFERASE [2]: 212.33 u/L | BLOOD UREA NITROGEN [2]: 22.33 mg/dL | CARBON DIOXIDE [2]: 20.33 mmol/L | CHLORIDE [2]: 99.67 MEQ/L | CHOLESTEROL [2]: 66.67 mg/dL | CREATINE PHOSPHOKINASE [2]: 1447.67 u/L | CREATININE [2]: 0.17 mg/dL | GLUCOSE [2]: 135.67 mg/dL | LACTATE DEHYDROGENASE [2]: 735.67 u/L | LIPASE [2]: 8.67 u/L | PHOSPHORUS [2]: 17 mg/dL | POTASSIUM [2]: 8 MEQ/L | SODIUM [2]: 141 MEQ/L | TOTAL BILIRUBIN [2]: 0.17 mg/dL | TOTAL PROTEIN [2]: 5.13 G/DL | URIC ACID [2]: 3.87 mg/dL | ABSOLUTE BASOPHIL [3]: 0 CELLS/uL | ABSOLUTE EOSINOPHIL [3]: 0 CELLS/uL | ABSOLUTE LYMPHOCYTE [3]: 14145 CELLS/uL | ABSOLUTE MONOCYTE [3]: 225 CELLS/uL | ABSOLUTE SEGMENTED NEUTROPHIL [3]: 8130 CELLS/uL | BASOPHIL [3]: 0% | EOSINOPHIL [3]: 0% | ERYTHROCYTE COUNT [3]: 4.19 x10E6/uL | HEMATOCRIT [3]: 26.25% | HEMOGLOBIN [3]: 10.55 G/DL | LEUKOCYTE COUNT [3]: 22.5 x10E3/uL | LYMPHOCYTE [3]: 62% | MEAN CORPUSCULAR HEMOGLOBIN [3]: 25.2 pg | MEAN CORPUSCULAR HEMOGLOBIN CONCENTRATION [3]: 40.2 G/DL | MEAN CORPUSCULAR VOLUME [3]: 62.7 fL | MONOCYTE [3]: 1% | NEUTROPHIL [3]: 37% | NUCLEATED RED BLOOD CELLS [3]: 0 /100WBC | PLATELET COUNT [3]: 2123.5 x10E3/uL | ALANINE AMINOTRANSFERASE [3]: 16.5 u/L | ALBUMIN [3]: 2.7 G/DL | ALKALINE PHOSPHATASE [3]: 153.5 u/L | ASPARTATE AMINOTRANSFERASE [3]: 50 u/L | BLOOD UREA NITROGEN [3]: 14 mg/dL | CARBON DIOXIDE [3]: 28 mmol/L | CHLORIDE [3]: 103 MEQ/L | CHOLESTEROL [3]: 71.5 mg/dL | CREATINE PHOSPHOKINASE [3]: 441 u/L | CREATININE [3]: 0.14 mg/dL | GLUCOSE [3]: 156.5 mg/dL | LACTATE DEHYDROGENASE [3]: 371.5 u/L | LIPASE [3]: 8 u/L | PHOSPHORUS [3]: 10.3 mg/dL | POTASSIUM [3]: 5.81 MEQ/L | SODIUM [3]: 139.25 MEQ/L | TOTAL BILIRUBIN [3]: 0.1 mg/dL | TOTAL PROTEIN [3]: 4.85 G/DL | URIC ACID [3]: 2.15 mg/dL
